Read-outs that look alike come from different tables or passages of the source.
Tests used:
[1] = molecular target: T1, Human dihydrofolate reductase (hDHFR) (Homo sapiens, UniProt P00374); assay: Inhibition of human dihydrofolate reductase (Ki); assay type: biochemical; details: human DHFR; hydrochloride salts
T1 sequence (P00374 1-187): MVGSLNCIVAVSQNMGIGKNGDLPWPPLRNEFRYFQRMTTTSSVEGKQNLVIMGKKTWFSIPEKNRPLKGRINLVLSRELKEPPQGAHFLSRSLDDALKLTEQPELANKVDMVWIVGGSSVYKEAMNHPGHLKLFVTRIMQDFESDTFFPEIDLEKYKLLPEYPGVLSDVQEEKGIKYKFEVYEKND

[2] = test system: P. falciparum TM4/8.2 (wild type); assay: microbe, parasite or virus in culture; assay type: cell-based, Plasmodium falciparum; details: Plasmodium falciparum, read-out: IC50 P. falciparum TM4/8.2 (WT)
Text: (§1) In Vitro Antimalarial Activites Against P. falciparum and Cytotoxicity Towards Mammalian Cells (Vero Cells)

[3] = test system: P. falciparum V1/S (N51I + C59R + S108 + I164L); assay: microbe, parasite or virus in culture; assay type: cell-based, Plasmodium falciparum; details: Plasmodium falciparum, read-out: IC50 P. falciparum V1/S
Text: as §1

in vitro = details: African green monkey
Text: as §1

[4] = molecular target: quadruple mutant N51I + C59R + S108N + I164L (QM) pfDHFR (Plasmodium falciparum, UniProt P13922, I164L/N51I); assay: Inhibition of quadruple mutant pfDHFR (Ki); assay type: biochemical
Chain of quadruple mutant N51I + C59R + S108N + I164L (QM) pfDHFR (P13922 whole entry N51I/I164L): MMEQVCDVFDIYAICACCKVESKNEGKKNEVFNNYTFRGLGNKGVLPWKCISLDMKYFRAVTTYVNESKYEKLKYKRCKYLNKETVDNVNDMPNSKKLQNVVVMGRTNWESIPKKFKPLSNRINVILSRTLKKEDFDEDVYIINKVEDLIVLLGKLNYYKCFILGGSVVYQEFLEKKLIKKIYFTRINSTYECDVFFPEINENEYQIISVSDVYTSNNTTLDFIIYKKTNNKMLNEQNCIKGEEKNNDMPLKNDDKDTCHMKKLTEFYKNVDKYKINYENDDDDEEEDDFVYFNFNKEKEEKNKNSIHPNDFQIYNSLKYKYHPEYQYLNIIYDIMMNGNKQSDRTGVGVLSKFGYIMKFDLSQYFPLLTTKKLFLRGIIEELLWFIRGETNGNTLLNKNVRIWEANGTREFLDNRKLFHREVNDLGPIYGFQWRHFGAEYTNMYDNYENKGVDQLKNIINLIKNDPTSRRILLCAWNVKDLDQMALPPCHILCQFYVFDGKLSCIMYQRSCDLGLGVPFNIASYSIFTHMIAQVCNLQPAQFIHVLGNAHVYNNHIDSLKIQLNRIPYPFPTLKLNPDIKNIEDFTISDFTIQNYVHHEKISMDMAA
Experimental: (§2) The synthesized 2,4-diamino-6-ethylpyrimdine derivatives as the hydrochloride salts were tested for the activities against Plasmodium falciparum (P. falciparum) according to the standard methods. These include the inhibition of dihydrofolate reductase (DHFR) enzymes of P. falciparum including, wild type (WT) and quadruple mutants (N51IC59RS108NI164L) (QM). The inhibition was expressed as inhibition constants (Ki) in nano molar (nM).

wild type (WT) pfDHFR = wild type (WT) pfDHFR (Plasmodium falciparum, UniProt P13922, N108S/R59C); assay: Inhibition of wild type pfDHFR (Ki); assay type: biochemical
Chain of wild type (WT) pfDHFR (P13922 whole entry R59C/N108S): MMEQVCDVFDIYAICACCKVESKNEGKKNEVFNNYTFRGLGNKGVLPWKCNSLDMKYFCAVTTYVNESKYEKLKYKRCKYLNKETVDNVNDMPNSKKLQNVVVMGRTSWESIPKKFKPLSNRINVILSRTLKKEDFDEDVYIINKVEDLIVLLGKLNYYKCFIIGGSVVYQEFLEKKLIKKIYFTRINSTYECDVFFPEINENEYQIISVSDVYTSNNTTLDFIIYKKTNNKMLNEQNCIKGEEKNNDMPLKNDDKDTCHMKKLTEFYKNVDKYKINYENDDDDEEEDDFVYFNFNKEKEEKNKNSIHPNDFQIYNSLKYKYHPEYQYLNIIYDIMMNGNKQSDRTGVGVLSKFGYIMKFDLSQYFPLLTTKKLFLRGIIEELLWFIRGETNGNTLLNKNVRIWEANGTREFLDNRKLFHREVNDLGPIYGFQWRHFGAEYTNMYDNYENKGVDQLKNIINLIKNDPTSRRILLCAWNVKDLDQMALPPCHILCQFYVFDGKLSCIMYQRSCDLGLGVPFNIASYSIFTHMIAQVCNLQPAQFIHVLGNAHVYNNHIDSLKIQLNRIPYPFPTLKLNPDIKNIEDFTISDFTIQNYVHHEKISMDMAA
Experimental: as §2

[5] = in vitro, wild-type strain TM4/8.2
[6] = in vitro, quadruple mutant strain V1/S

SMILES | Ki [1] | IC50 [2, 5] | IC50 [3, 6] | IC50 (in vitro) | Ki [4] | Ki (wild type (WT) pfDHFR) | IC50 [2] | IC50 [3]
CCc1nc(N)nc(N)c1OCc1coc(-c2cccc(C)c2)n1 [Compound 51] | 256 ± 9.25 nM | 830 ± 50 nM | 21900 ± 5880 nM | 75900 ± 11000 nM | 48 ± 1.54 nM | 0.44 ± 0.05 nM |  | 
CCc1nc(N)nc(N)c1OCc1coc(-c2cccc([N+](=O)[O-])c2)n1 [Compound 52] | > 100000 nM | 2660 ± 310 nM | 15100 ± 1490 nM | > 50000 nM | 93.2 ± 25 nM | 2.63 ± 0.26 nM |  | 
CCc1nc(N)nc(N)c1OCc1coc(-c2cccc(OCC(=O)OCc3ccccc3)c2)n1 [Compound 53] | 681 ± 70.3 nM | 1760 ± 670 nM | > 10000 nM | > 10000 nM | 45.5 ± 5.02 nM | 0.83 ± 0.08 nM |  | 
CCc1nc(N)nc(N)c1OCc1coc(-c2cccc(OCC(=O)O)c2)n1 [Compound 54] | 540 ± 25.2 nM | 3820 ± 210 nM | > 50000 nM | > 50000 nM | 261 ± 19 nM | 1.19 ± 0.15 nM |  | 
CCc1nc(N)nc(N)c1OCc1coc(-c2ccc(Cl)cc2)n1 [Compound 55] | > 100000 nM | 870 ± 110 nM | > 25000 nM | > 25000 nM | 32.9 ± 4.13 nM | 1.14 ± 0.17 nM |  | 
CCc1nc(N)nc(N)c1OCc1coc(-c2ccc(OCC(=O)OCc3ccccc3)cc2)n1 [Compound 56] | > 100000 nM | 580 ± 220 nM | 23300 ± 2470 nM | > 100000 nM | 46.7 ± 4.68 nM | 0.81 ± 0.07 nM |  | 
CCc1nc(N)nc(N)c1OCc1coc(-c2ccc(OCC(=O)O)cc2)n1 [Compound 57] | 716 ± 78.3 nM | 730 ± 170 nM | > 50000 nM | > 50000 nM | 78 ± 6.44 nM | 0.84 ± 0.08 nM |  | 
CCc1nc(N)nc(N)c1OCCc1coc(-c2ccccc2)n1 [Compound 58] | 20.4 ± 2.1 nM |  |  | 5590 ± 1840 nM | 4.63 ± 0.22 nM | 0.55 ± 0.02 nM | 48 ± 21 nM | 53100 ± 15200 nM
CCc1nc(N)nc(N)c1OCCc1coc(-c2ccc(C(=O)O)cc2)n1 [Compound 59] | 17.4 ± 1.14 nM | 52 ± 10 nM | > 10000 nM | > 10000 nM | 1.56 ± 0.07 nM | 0.26 ± 0.01 nM |  | 
CCc1nc(N)nc(N)c1OCc1csc(-c2ccccc2)n1 [Compound 60] | 276 ± 16.7 nM | 1200 ± 380 nM | 20800 ± 1860 nM | > 50000 nM | 38.8 ± 5.58 nM | 1.02 ± 0.14 nM |  | 
CCc1nc(N)nc(N)c1OCc1csc(-c2cccc(C)c2)n1 [Compound 61] | 131.5 ± 0.88 nM | 840 ± 100 nM | 18000 ± 7770 nM | 31300 ± 7750 nM | 37.7 ± 3.04 nM | 0.34 ± 0.05 nM |  | 
CCc1nc(N)nc(N)c1OCc1csc(-c2cccc([N+](=O)[O-])c2)n1 [Compound 62] | 134 ± 7.24 nM | 460 ± 70 nM | 3980 ± 520 nM | 17900 ± 6230 nM | 53.2 ± 8.93 nM | 0.74 ± 0.07 nM |  | 
CCc1nc(N)nc(N)c1OCc1csc(-c2cccc(OCC(=O)OCc3ccccc3)c2)n1 [Compound 63] | 118 ± 14.8 nM | 400 ± 70 nM | > 50000 nM | > 50000 nM | 33.9 ± 1.85 nM | 0.75 ± 0.1 nM |  | 
CCc1nc(N)nc(N)c1OCc1csc(-c2cccc(OCC(=O)O)c2)n1 [Compound 64] | 184 ± 21.4 nM | 550 ± 120 nM | > 50000 nM | > 50000 nM | 41.3 ± 7.41 nM | 0.6 ± 0.04 nM |  | 
CCc1nc(N)nc(N)c1OCc1csc(-c2cccc(C(=O)OC)c2)n1 [Compound 65] | 195 ± 8.2 nM |  |  | > 50000 nM | 56.7 ± 5.79 nM | 0.51 ± 0.04 nM | 400 ± 80 nM | > 50000 nM
CCc1nc(N)nc(N)c1OCc1csc(-c2ccc(C)cc2)n1 [Compound 67] | > 100000 nM | 1020 ± 530 nM | 19000 ± 6700 nM | 28900 ± 5740 nM | 27.3 ± 1.45 nM | 0.81 ± 0.05 nM |  | 
CCc1nc(N)nc(N)c1OCc1csc(-c2ccc(OC)cc2)n1 [Compound 68] | 186 ± 4.66 nM |  |  | 43500 ± 13400 nM | 16 ± 1.27 nM | 0.46 ± 0.06 nM | 450 ± 90 nM | 12900 ± 5710 nM
CCc1nc(N)nc(N)c1OCc1csc(-c2ccc(F)cc2)n1 [Compound 69] | 318 ± 29.7 nM | 790 ± 380 nM | > 25000 nM | > 25000 nM | 45.6 ± 4.68 nM | 0.9 ± 0.18 nM |  | 
CCc1nc(N)nc(N)c1OCc1csc(-c2ccc(Cl)cc2)n1 [Compound 70] | 286 ± 47.1 nM | 1180 ± 30 nM | 24300 ± 9370 nM | 63500 ± 17600 nM | 30.2 ± 1.59 nM | 0.74 ± 0.09 nM |  | 
